According to patent US5770604A, “Aconitine compound and an antipyretic/analgesic/anti-inflammatory agent” (priority 1994, dated 1998):

Columns and labels:
Format in all cases: in vivo, mice (Std:ddY, male)
[1] = tested on: nociceptive response (licking); experiment: Analgesic activity by the hot-plate method; conditions: mouse, 52° C. plate, solution 10 mg/10 ml, mean ± standard error
Experimental: Measurement of Analgesic Activity by the Hot-Plate Method
Std:ddY Strain male mice (20-25 g) were fasted for one day before the experiment, and were used. After compounds shown in Table 1 were formed to the tartaric acid salts, these compounds were dissolved in 0.9% physiologocal saline solution at the rate of 10 mg/10 ml, respectively and these solution were used as test compound solution. In a control, 0.9% physiological saline solution was used. Mice were placed on a cyrindric hot plate (diameter: 22 cm, height: 11 cm) made of copper which was fixed in a water bath adjusted to 52° C. so that each animal's four paws came into contact with the plate and the time taken to show the nociceptive response (licking) as an index of pain was measured. Mice showing response latency above 25 seconds were excluded from the experiment. To prevent a burn damage of mouse tissue by heating, cutoff time of 50 seconds was defined. The results were described as an inhibition rate (%) obtained from the following equation.
Inhibition rate (%)=(A-B)×100/(50-B)
A: Response latency (seconds) after the administration of test compound solution
B: Response latency (seconds) before the administration of test compound solution

[2] = tested on: pain threshold (tail-pressure); experiment: Analgesic activity by the tail-pressure method (s.c.); conditions: mouse, 10 mg/10 ml at 10 ml/kg s.c., 1 hour after administration, mean ± standard error
Experimental: (1) Measurement of Analgesic Activity by the Tail-Pressure Method
Std:ddY Strain male mice (20-25 g) were fasted for one day before the experiment, and were used. After test compounds shown in Table 1 was formed to a salt with tartaric acid, this salt was dissolved in 0.9% physiological saline solutions at the rate of 10 mg/10 ml to give the test compoun d solution . As a control, 0.9% physiological saline solution was used. A tail-pressure apparatus was used in this experiments. Before the administration of test compounds, the pain threshold was measured twice at intervals of 30 minutes and those mice indicating a pain threshold of 50 to 100 mmHg were selected and used. The pain threshold of each mouse was measured at 1 hour after test compound solution mentioned above was administered at 10 ml/kg, s.c. 0.9% Physiological saline solution as a control was administered at 10 ml/kg, s.c . The results were described as an inhibition rate (%) obtained from the following equation. Cutoff level of pressure was defined to be 230 mmHg for the prevention of the damage of mouse tail.
Inhibition rate (%)=(A-B)×100/(C-B)
A: Pain threshold (mmHg) after the administration of test compound solution
B: Pain threshold (mmHg) before the administration of test compound solution
C: Cutoff pressure (230 mmHg)

[3] = tested on: carrageenin-induced paw edema; experiment: Antiinflammatory activity by the carrageenin-induced hind paw edema; conditions: mouse, 30 mg/kg p.o., mean ± standard error, n = 6
Experimental: Measurement of Antiinflammatory Activity by the Carrageenin-Induced Hind Paw Edema
Std:ddY Strain male mice (20-25 g) were fasted for one day before the experiment, and were used. After test compounds shown in Table 1 was formed to a salt with tartaric acid, this salt was dissolved in sterilized and distilled water at the rate of 30 mg/10 ml to give the test compound solution. As a control, sterilized and distilled water was used. One hour after the oral administration of test compound solutions, 25 μl of λ-carrageenin suspended in 0.9% physiological saline solution (0.5 mg/25 μl) was injected s.c. under the plantar surface of the right hind paw of a mouse and 25 μl of 0.9% physiological saline solution was injected s.c. under the plantar surface of the left hind paw of the same mouse. Three hours and five hours after carrageenin injection, the […] of the paw was measured with a dial gauge calliper. To the control group, One hour after the oral administration of sterilized and distilled water at the rate of 10 ml/kg, 25 μl of λ-carrageenin (0.5 mg/25 μl) suspended in 0.9% physiological saline solution was injected s.c. under the plantar surface of the right hind paw of a mouse and 25 μl of 0.9% physiological saline solution was injected s.c. under the plantar surface of the left hind paw of the same mouse and the later operation was done in the same manner as in the test compound dosing group mentioned above. The results were described as a swelling rate (%) obtained from the following equation.
Swelling rate (%)=(R-L)×100/L
R: the thickness of the right hind paw
L: the thickness of the left hind paw

[4] = tested on: pain threshold (tail-pressure); experiment: Tail-pressure method, experiment combined with morphine antagonist (levallorphan); conditions: mean ± standard error
Experimental: (4) Experiment Combined with Morphine Antagonist
Std:ddY Strain male mice (20-25 g) were fasted for one day before the experiment, and were used. In this experiment, the tartaric acid salt of a compound of number (2) in Table 1, morphine hydrochloride and levallorphan hydrochloride of an opioid antagonist were used. The tartaric acid salt of a compound of number (2) was dissolved in 0.9% physiological saline solution at the rate of 10 mg/2 ml. Morphine hydrochloride was dissolved in 0.9% physiological saline solution at the rate of 10 mg/2 ml. Levallorphan hydrochloride was dissolved in 0.9% physiological saline solution at the rate of 1 mg/10 ml. As a control, 0.9% physiological saline solution was used. A tail-pressure apparatus was used in this experiments. Before the administration of levallorphan hydrochloride, the pain threshold was measured twice at intervals of 30 minutes and those mice indicating a pain threshold of 50 to 100 mmHg were selected and used. Levallorphan hydrochloride solution mentioned above was administered s.c. at the rate of 10 ml/kg and, 30 minutes later, the above tartaric acid salt solution compound of number (2) or morphine hydrochloride solution was injected i.v. at the rate of 2 ml/kg, respectively. Each pain threshold was measured 10, 20 and 30 minutes after an intravenous injection. In control group, 0.9% physiological saline solution was injected i.v. at the rate of 2 ml/kg at 30 minutes after s.c. administration at 10 ml/kg of 0.9% physiological saline solution. In the single administration group of levallorphan hydrochloride, levallorphan hydrochloride solution mentioned above was administered s.c. at the rate of 10 ml/kg and, 30 minutes later, 0.9% physiological saline solution was injected i.v. at the rate of 2 ml/kg. The results were described in Table 10 as an inhibition rate (%) indicating in the preceding paragraph (1).

[5] = tested on: pain threshold (tail-pressure); experiment: Tail-pressure method, experiment combined with morphine administration; conditions: mean ± standard error, n = 7
Experimental: (3) Experiment Combined with Morphine Administration
Std:ddY Strain male mice (20-25 g) were fasted for one day before the experiment, and were used. In this experiment, the tartaric acid salt of a compound of number (2) in Table 1 and morphine hydrochloride were used. The tartaric acid salt of a compound of number (2) was dissolved in 0.9% physiological saline solution at the rate of 7 mg/10 ml. Morphine hydrochloride was dissolved in 0.9% physiological saline solution at the rates of 5 mg/2 ml, 3 mg/2 ml and 1 mg/2 ml. As a control, 0.9% phisiological saline solution was used. A tail-pressure apparatus was used in this experiments. Before the administration of test compounds, the pain threshold was measured twice at intervals of 30 minutes and those mice indicating a pain threshold of 50 to 100 mmHg were selected and used. Mice was divided in the following four groups, (i) control group, (ii) the administration group of the tartaric acid salt of a compound of number (2), (iii) the administration group of morphine hydrochloride and (iv) the combined administration group with the tartaric acid salt of a compound of number (2) and morphine hydrochloride. In the administration group of the tartaric acid salt of a compound of number (2), 0.9% physiological saline solution of this tartaric acid salt mentioned above was injected s.c. at the rate of 10 ml/kg and, 30 minutes later, 0.9% physiological saline solution was injected i.v. at the rate of 2 ml/kg. In the administration group of morphine hydrochloride, 0.9% physiological saline solution was injected s.c. at the rate of 10 ml/kg and, 30 minutes later, the above physiological saline solution of morphine hydrochloride was injected i.v. at the rate of 2 ml/kg. In the combined administration group with the tartaric acid salt of a compound of number (2) and morphine hydrochloride,the above physiological saline solution of the tartaric acid salt of a compound of number (2) was injected s.c. at the rate of 10 ml/kg and, 30 minutes later, the above physiological saline solution of morphine hydrochloride was injected i.v. at the rate of 2 ml/kg. In control group, 0.9% physiological saline solution was injected s.c. at the rate of 10 ml/kg and, 30 minutes later, 0.9% physiological saline solution was injected i.v. at the rate of 2 ml/kg. Each pain threshold was measured 10, 20 and 30 minutes after an intravenous injection. The results were described in Table 9 as an inhibition rate (%) indicating in the preceding paragraph (1).

[6] = tested on: pain threshold (tail-pressure); experiment: Tail-pressure method, comparison with morphine (i.v.); conditions: mean ± standard error
Experimental: (2) Comparison with Morphine
Std:ddY Strain male mice (20-25 g) were fasted for one day before the experiment, and were used. In this experiment, the tartaric acid salt of a compound of number (2) in Table 1 and morphine hydrochloride as a possitive control were used. This tartaric acid salt was dissolved in 0.9% physiological saline solution at the rates of 5 mg/2 ml, 3 mg/2 ml and 1 mg/2 ml. Morphine hydrochloride was dissolved in 0.9% physiological saline solution at the rates of 5 mg/2 ml, 3 mg/2 ml and 1 mg/2 ml. As a negative control, 0.9% phisiological saline solution was used. A tail-pressure apparatus was used in this experiments. Before the administration of test compounds, the pain threshold was measured twice at intervals of 30 minutes and those mice indicating a pain threshold of 50 to 100 mmHg were selected and used. The pain threshold of each mouse was measured at 10, 20 and 30 minutes after test compound solution mentioned above was administered at 2 ml/kg, i.v. 0.9% Physiological saline solution as a control was administered i.v. The results were described as an inhibition rate (%) indicating in the preceding paragraph (1).

## 15-O-acetyl-8-deoxy-14-O-p-chlorobenzoylaconine [(8)]
[1]
  Inhibition rate (hot-plate method): 48 ± 8%
[2]
  Inhibition rate (tail-pressure method): 26 ± 7%
[3]; 3 hour
  Swelling rate: 41 ± 5%
[3]; 5 hour
  Swelling rate: 55 ± 8%

## 15-O-acetyl-8-deoxy-14-O-p-chlorobenzoylmesaconine [(7)]
[1]
  Inhibition rate (hot-plate method): 49 ± 11%
[2]
  Inhibition rate (tail-pressure method): 35 ± 10%
[3]; 3 hour
  Swelling rate: 43 ± 8%
[3]; 5 hour
  Swelling rate: 48 ± 8%

## 15-O-acetyl-8-deoxy-16-epi-14-O-p-chlorobenzoylaconine [(10)]
[1]
  Inhibition rate (hot-plate method): 40 ± 10%
[2]
  Inhibition rate (tail-pressure method): 23 ± 7%
[3]; 3 hour
  Swelling rate: 49 ± 6%
[3]; 5 hour
  Swelling rate: 49 ± 11%

## 15-O-acetyl-8-deoxy-16-epi-14-O-p-chlorobenzoylmesaconine [(9)]
[1]
  Inhibition rate (hot-plate method): 46 ± 7%
[2]
  Inhibition rate (tail-pressure method): 31 ± 12%
[3]; 3 hour
  Swelling rate: 44 ± 7%
[3]; 5 hour
  Swelling rate: 56 ± 7%

## C=CCN1CC[C@]23CCCC[C@H]2[C@H]1Cc1ccc(O)cc13 [levallorphan]
[4]; levallorphan 1 mg/kg s.c. alone, 10 min after i.v. injection
  Inhibition rate: 3 ± 4%
[4]; levallorphan 1 mg/kg s.c. alone, 20 min after i.v. injection
  Inhibition rate: -3 ± 4%
[4]; levallorphan 1 mg/kg s.c. alone, 30 min after i.v. injection
  Inhibition rate: 1 ± 3%

## CN1CC[C@]23c4c5ccc(O)c4O[C@H]2[C@@H](O)C=C[C@H]3[C@H]1C5 [morphine, reference compound]
[5]; morphine 1 mg/kg i.v. alone, 10 min
  Inhibition rate: 2 ± 2%
[5]; morphine 1 mg/kg i.v. alone, 20 min
  Inhibition rate: 3 ± 4%
[5]; morphine 1 mg/kg i.v. alone, 30 min
  Inhibition rate: 1 ± 2%
[5]; morphine 3 mg/kg i.v. alone, 10 min
  Inhibition rate: 11 ± 8%
[5]; morphine 3 mg/kg i.v. alone, 20 min
  Inhibition rate: 15 ± 9%
[5]; morphine 3 mg/kg i.v. alone, 30 min
  Inhibition rate: 10 ± 6%
[5]; morphine 5 mg/kg i.v. alone, 10 min
  Inhibition rate: 36 ± 10%
[5]; morphine 5 mg/kg i.v. alone, 20 min
  Inhibition rate: 32 ± 11%
[5]; morphine 5 mg/kg i.v. alone, 30 min
  Inhibition rate: 26 ± 8%
[4]; 10 mg/kg i.v., with levallorphan 1 mg/kg s.c. 30 minutes before, 10 min
  Inhibition rate: 10 ± 1%
[4]; 10 mg/kg i.v., with levallorphan 1 mg/kg s.c. 30 minutes before, 20 min
  Inhibition rate: 10 ± 7%
[4]; 10 mg/kg i.v., with levallorphan 1 mg/kg s.c. 30 minutes before, 30 min
  Inhibition rate: 20 ± 6%
[4]; 10 mg/kg i.v., without levallorphan, 10 min
  Inhibition rate: 70 ± 13%
[4]; 10 mg/kg i.v., without levallorphan, 20 min
  Inhibition rate: 73 ± 9%
[4]; 10 mg/kg i.v., without levallorphan, 30 min
  Inhibition rate: 65 ± 12%
[6]; 1 mg/kg i.v., 10 minutes
  Inhibition rate: 1 ± 2%
[6]; 1 mg/kg i.v., 20 minutes
  Inhibition rate: 2 ± 2%
[6]; 1 mg/kg i.v., 30 minutes
  Inhibition rate: 2 ± 1%
[6]; 3 mg/kg i.v., 10 minutes
  Inhibition rate: 13 ± 7%
[6]; 3 mg/kg i.v., 20 minutes
  Inhibition rate: 18 ± 10%
[6]; 3 mg/kg i.v., 30 minutes
  Inhibition rate: 12 ± 8%
[6]; 5 mg/kg i.v., 10 minutes
  Inhibition rate: 38 ± 12%
[6]; 5 mg/kg i.v., 20 minutes
  Inhibition rate: 30 ± 10%
[6]; 5 mg/kg i.v., 30 minutes
  Inhibition rate: 29 ± 12%
